{"source": "patent US20070110833A1", "about": "“Composition comprising the alcohol compound isolated from the extract of cucurbitaceae family plant having anti-adipogenic and anti-obesity activity” (priority 2003, published 2007)", "system": "3T3-L1 cell", "assay": "Inhibition of adipocyte (3T3-L1) differentiation and triglyceride accumulation, Oil Red O staining", "type": "cell-based", "procedure": "Adipocyte cell (3T3-L1) purchased from ATCC (American Tissue Culture Collection, USA) was cultured in RPMI medium containing 10% FBS and MDI cocktail (isobutylmethylxanthine, dexamethasone, insulin) was added thereto for differentiating into mature adipocytes cell. After two days, the medium was replaced and treated with only insulin. Thereafter, the medium was replaced and equal concentration of insulin was treated again every other day. MDI ranging from 2.5 to 1000 ug/ml of the concentration was treated when the adipocytes differentiation was induced and equal concentration of the MDI was treated at every replacement of the medium.\nAfter eight days lapsed, the accumulated fat within differentiated cell was stained with Oil Red O staining reagent and the absorbance was determined with optical density qualitatively. The inhibition percentage (%) was calculated by following Empirical formula 1. The Inhibition Percentage (%)=[O.D. of test group]/[O.D. value of Control group]×100 [Empirical Formula 1]", "data": [{"smiles": "C[S+]([O-])c1ccc(-c2nc(-c3ccncc3)c(-c3ccc(F)cc3)[nH]2)cc1", "note": "(centres unmarked) [SB203580]", "values": [{"measurement": "adipocyte differentiation and triglyceride accumulation", "setting": "Experimental Example 1-3, cmc-9 and controls, FIG. 5", "result": "the triglyceride was not formed"}, {"measurement": "level of produced triglycerides in differentiated 3T3-L1 cells (Oil Red O)", "setting": "MDI-induced differentiation, 8 days, extracts 1 mg/ml, SB203580 10 uM, FIGS. 1 and 2", "result": "the triglyceride was not produced"}]}]}
